ChEMBL document CHEMBL1201862, “PubChem BioAssay data set” (2004)
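A five-concentration, 48-hour dose response in 96-well plates underlies each endpoint, interpolated linearly between surrounding concentrations. Here, GI50 denotes the concentration required for 50% inhibition of growth.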 Calls of active or inactive are those of the source. Cut-off read from the data, not from the text of the source: active = GI50 up to about 1.1 µM and inactive = higher. Numbered stars: 1 amine (or outer) side, 2 acyl side, 3 side chain; on linkers, the order of the positions; unused ones are H or OH. Bridge positions count the residues as written; N and C are the ends. Square brackets hold non-standard residues; d marks the D form. Peptide text beside a SMILES is read from it. I, II: the chains in the order shown. Actinocin(9to1) = Cc1c2oc3c(C)ccc(C(=O)[*:1])c3nc-2c(C(=O)[*:2])c(N)c1=O; X48 = O=C1CC(C(=O)[*:2])N([*:1])C1; NMeV = CN[CH](C(=O)O)C(C)C; Sar = CNCC(=O)O

Experiments:
Assay in all cases: DTP human tumour cell line panel, 48 h
786-0 = tested on: 786-0
A549 = tested on: A549
ACHN = tested on: ACHN
CCRF-CEM = tested on: CCRF-CEM
EKVX = tested on: EKVX
HCT-116 = tested on: HCT-116
HL-60 = tested on: HL-60
MCF7 = tested on: MCF7
MDA-MB-231 = tested on: MDA-MB-231
MDA-MB-435 = tested on: MDA-MB-435
MOLT-4 = tested on: MOLT-4
NCI-H23 = tested on: NCI-H23
NCI-H522 = tested on: NCI-H522
NCI/ADR-RES = tested on: NCI/ADR-RES
RPMI-8226 = tested on: RPMI-8226
SF-268 = tested on: SF-268
SNB-19 = tested on: SNB-19
SNB-75 = tested on: SNB-75
HT-29 = tested on: HT-29
HOP-62 = tested on: HOP-62

SMILES	GI50 (786-0)	GI50 (A549)	GI50 (ACHN)	GI50 (CCRF-CEM)	GI50 (EKVX)	GI50 (HCT-116)	GI50 (HL-60)	GI50 (MCF7)	GI50 (MDA-MB-231)	GI50 (MDA-MB-435)	GI50 (MOLT-4)	GI50 (NCI-H23)	GI50 (NCI-H522)	GI50 (NCI/ADR-RES)	GI50 (RPMI-8226)	GI50 (SF-268)	GI50 (SNB-19)	GI50 (SNB-75)	GI50 (HT-29)	GI50 (HOP-62)
COC(=O)CCCC(=O)NC1=C(Nc2ccccc2)C(=O)c2ccccc2C1=O	17.9 µM (inactive)	19.5 µM (inactive)	19.3 µM (inactive)	22.8 µM (inactive)	24.4 µM (inactive)	16.6 µM (inactive)	20.5 µM (inactive)	15.4 µM (inactive)	19.1 µM (inactive)	5.51 µM (inactive)	16.6 µM (inactive)	10.6 µM (inactive)	16.9 µM (inactive)	18.2 µM (inactive)	17.6 µM (inactive)	30.7 µM (inactive)	18.2 µM (inactive)	18.4 µM (inactive)		
O=C1CSC2(CC(/C=C/c3ccccc3[N+](=O)[O-])=NN2c2cccc(S(=O)(=O)O)c2)N1c1nc2ccccc2s1 (stereo unspecified)	12.3 µM (inactive)	18.7 µM (inactive)	17.1 µM (inactive)	17.9 µM (inactive)	32.3 µM (inactive)	21.3 µM (inactive)	21.7 µM (inactive)	12.5 µM (inactive)	15.9 µM (inactive)	14.8 µM (inactive)	15.7 µM (inactive)	16.9 µM (inactive)	11.6 µM (inactive)	21.5 µM (inactive)	16.8 µM (inactive)	16.8 µM (inactive)	15.5 µM (inactive)	15.3 µM (inactive)	23.8 µM (inactive)	
CC1=NC2(CCCCC2)N(Cl)C(=O)C1SC#N (stereo unspecified)	17.5 µM (inactive)	0.0504 µM (active)	17.7 µM (inactive)	2.58 µM (inactive)	17.5 µM (inactive)		> 100 µM (inactive)	23.6 µM (inactive)	17.6 µM (inactive)	19.2 µM (inactive)	4.97 µM (inactive)	25.1 µM (inactive)	16.7 µM (inactive)	20.3 µM (inactive)	> 10 µM (inactive)	18 µM (inactive)	23.4 µM (inactive)	20.7 µM (inactive)	20.7 µM (inactive)	22.9 µM (inactive)
COc1ccc(OC)c([N+](=O)[O-])c1-c1nc2sccn2c1/C=N/N=C(N)N	> 100 µM (inactive)	> 100 µM (inactive)	> 100 µM (inactive)	34.2 µM (inactive)	> 100 µM (inactive)	48.4 µM (inactive)	79.6 µM (inactive)	21.5 µM (inactive)	48.6 µM (inactive)	52.7 µM (inactive)	26.9 µM (inactive)	> 100 µM (inactive)	58.2 µM (inactive)	> 100 µM (inactive)	33.5 µM (inactive)	44.6 µM (inactive)	> 100 µM (inactive)		63.8 µM (inactive)	> 100 µM (inactive)
Cc1nc2c(O)cc3c4c([nH]c3c2nc1C)C(=O)CCC4	5.85 µM (inactive)	2.4 µM (inactive)	5.45 µM (inactive)	4.07 µM (inactive)	6.37 µM (inactive)	3.01 µM (inactive)	3.72 µM (inactive)	0.875 µM (active)	7.45 µM (inactive)	0.541 µM (active)	4.91 µM (inactive)	6.58 µM (inactive)		34.6 µM (inactive)	2.24 µM (inactive)	2.96 µM (inactive)	9.42 µM (inactive)		1.52 µM (inactive)	5.89 µM (inactive)
CC1CC[C@@]2(OC1)OC1C[C@H]3[C@@H]4C/C(=N\N(C)C)[C@@]5(O)CC(O)CC[C@]5(C)[C@H]4CC[C@]3(C)C1[C@@H]2C (stereo partly specified)	40.6 µM (inactive)	48.6 µM (inactive)	73.3 µM (inactive)	31.3 µM (inactive)		24.7 µM (inactive)	21.2 µM (inactive)	39.1 µM (inactive)	52.1 µM (inactive)	29.8 µM (inactive)	34.1 µM (inactive)	30.5 µM (inactive)		49.4 µM (inactive)	41.6 µM (inactive)	58.7 µM (inactive)	38.7 µM (inactive)		20 µM (inactive)	41.3 µM (inactive)
CC(C)(C)OC(=O)Nc1cc(-c2ccccc2)co1	> 100 µM (inactive)	78.2 µM (inactive)	> 100 µM (inactive)	51.8 µM (inactive)	> 100 µM (inactive)	83.9 µM (inactive)	> 100 µM (inactive)	83.8 µM (inactive)	68.7 µM (inactive)	94 µM (inactive)	33.8 µM (inactive)	> 100 µM (inactive)	17.3 µM (inactive)	> 100 µM (inactive)	41.1 µM (inactive)	22.7 µM (inactive)	> 100 µM (inactive)			> 100 µM (inactive)
CCOC(=O)c1cc(C2CCN(CC(C)CC)C2=S)c(C(=O)/C=C(/C)N)[nH]1 (stereo unspecified)	> 50 µM (inactive)		> 50 µM (inactive)	> 50 µM (inactive)	> 50 µM (inactive)	> 50 µM (inactive)	> 50 µM (inactive)	> 50 µM (inactive)	> 50 µM (inactive)	> 50 µM (inactive)	> 50 µM (inactive)	> 50 µM (inactive)		> 50 µM (inactive)	> 50 µM (inactive)	> 50 µM (inactive)	> 50 µM (inactive)	> 50 µM (inactive)	> 50 µM (inactive)	> 50 µM (inactive)
O=C(NCCn1ccnn1)Nc1ccccc1	> 100 µM (inactive)	> 100 µM (inactive)	> 100 µM (inactive)	> 100 µM (inactive)	> 100 µM (inactive)		> 100 µM (inactive)	> 100 µM (inactive)	> 100 µM (inactive)	> 100 µM (inactive)	> 100 µM (inactive)	> 100 µM (inactive)	> 100 µM (inactive)	> 100 µM (inactive)	> 100 µM (inactive)	> 100 µM (inactive)	> 100 µM (inactive)	> 100 µM (inactive)	> 100 µM (inactive)	> 100 µM (inactive)
CCOC(=O)/C=C1/Nc2cc(F)c(F)cc2NC1=O	> 100 µM (inactive)	> 100 µM (inactive)	> 100 µM (inactive)	> 100 µM (inactive)	> 100 µM (inactive)	> 100 µM (inactive)	> 100 µM (inactive)	> 100 µM (inactive)	> 100 µM (inactive)	> 100 µM (inactive)	> 100 µM (inactive)	> 100 µM (inactive)		> 100 µM (inactive)	> 100 µM (inactive)	> 100 µM (inactive)	> 100 µM (inactive)	> 100 µM (inactive)	> 100 µM (inactive)	> 100 µM (inactive)
CC(=O)C1=CN=C2C(=O)N(c3ccccc3)N(C)C12C (stereo unspecified)	> 100 µM (inactive)	> 100 µM (inactive)	> 100 µM (inactive)	> 100 µM (inactive)	> 100 µM (inactive)	> 100 µM (inactive)	> 100 µM (inactive)	> 100 µM (inactive)	> 100 µM (inactive)	> 100 µM (inactive)	> 100 µM (inactive)	> 100 µM (inactive)	> 100 µM (inactive)	55.1 µM (inactive)	> 100 µM (inactive)		> 100 µM (inactive)	24.7 µM (inactive)		
C#CCn1c(=O)c2cc(OC)c(OC)cc2n(CC#C)c1=O	> 10 µM (inactive)	> 10 µM (inactive)	> 10 µM (inactive)	> 10 µM (inactive)	> 10 µM (inactive)	> 10 µM (inactive)		> 10 µM (inactive)	> 10 µM (inactive)	> 10 µM (inactive)	> 10 µM (inactive)	> 10 µM (inactive)	> 10 µM (inactive)	> 10 µM (inactive)	> 10 µM (inactive)	> 10 µM (inactive)	> 10 µM (inactive)	> 10 µM (inactive)	> 10 µM (inactive)	> 10 µM (inactive)
NC(Cc1ccc(S(=O)(=O)O)cc1)C(=O)NC(Cc1ccc(S(=O)(=O)O)cc1)C(=O)O (stereo unspecified)	> 100 µM (inactive)	> 100 µM (inactive)	> 100 µM (inactive)	> 100 µM (inactive)	> 100 µM (inactive)	> 100 µM (inactive)	> 100 µM (inactive)	> 100 µM (inactive)	> 100 µM (inactive)	> 100 µM (inactive)	> 100 µM (inactive)	> 100 µM (inactive)	> 100 µM (inactive)	> 100 µM (inactive)	> 100 µM (inactive)	> 100 µM (inactive)		> 100 µM (inactive)	> 100 µM (inactive)	> 100 µM (inactive)
Cc1c2oc3c(C)ccc(C(=O)NC4C(=O)NC(C(C)C)C(=O)N5CC(=O)CC5C(=O)N(C)CC(=O)N(C)C(C(C)C)C(=O)OC4C)c3nc-2c(C(=O)NC2C(=O)NC(C(C)C)C(=O)N3CC(=O)CC3C(=O)N(C)CC(=O)N(C)C(C(C)C)C(=O)OC2C)c(N)c1=O (stereo unspecified) (I: TV[X48][Sar][NMeV] / II: TV[X48][Sar][NMeV]; ester I:1-I:C, II:1-II:C; linker I:N-II:N via Actinocin(9to1); configuration not given here)	> 1 µM (active)	0.253 µM (active)	> 1 µM (active)	> 1 µM (active)	> 1 µM (active)	> 1 µM (active)	> 1 µM (active)	0.0277 µM (active)	> 1 µM (active)	> 1 µM (active)	> 1 µM (active)	> 1 µM (active)		> 1 µM (active)	> 1 µM (active)		> 1 µM (active)		> 1 µM (active)	> 1 µM (active)
